Test results as given in patent publication US9957271B2, “Substituted bicyclic aza-heterocycles and analogues as sirtuin modulators” (GlaxoSmithKline, LLC, priority 2012, dated 2018).
Where two headings read alike, the source gives them in different places.

Biological target: T1, SIRT1 (Homo sapiens, UniProt Q96EB6)
T1 sequence (Q96EB6 1-747): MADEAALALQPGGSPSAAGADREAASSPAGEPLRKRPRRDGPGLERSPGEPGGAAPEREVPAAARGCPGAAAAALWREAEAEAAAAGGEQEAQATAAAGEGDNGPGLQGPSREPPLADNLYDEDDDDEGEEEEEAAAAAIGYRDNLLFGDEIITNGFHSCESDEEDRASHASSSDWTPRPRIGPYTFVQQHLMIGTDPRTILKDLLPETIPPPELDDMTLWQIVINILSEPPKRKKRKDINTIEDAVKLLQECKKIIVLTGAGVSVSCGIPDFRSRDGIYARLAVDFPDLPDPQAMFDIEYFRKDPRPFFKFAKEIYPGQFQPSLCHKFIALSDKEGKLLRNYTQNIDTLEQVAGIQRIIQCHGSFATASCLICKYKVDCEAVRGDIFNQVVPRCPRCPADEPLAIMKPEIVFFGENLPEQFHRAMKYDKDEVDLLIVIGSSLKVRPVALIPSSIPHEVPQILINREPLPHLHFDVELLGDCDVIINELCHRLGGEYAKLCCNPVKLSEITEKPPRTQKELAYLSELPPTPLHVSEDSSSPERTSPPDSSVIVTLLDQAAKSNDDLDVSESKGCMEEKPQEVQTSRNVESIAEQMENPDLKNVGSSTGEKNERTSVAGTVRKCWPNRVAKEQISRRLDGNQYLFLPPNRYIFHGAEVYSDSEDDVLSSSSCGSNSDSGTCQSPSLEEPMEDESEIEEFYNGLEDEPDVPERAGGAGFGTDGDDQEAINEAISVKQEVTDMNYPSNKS
Test: TAMRA based mass spectrometry assay of SIRT1 activity
Assay type: biochemical
Details: for TAMRA EC1.5 (μM) / TAMRA EC1.5: concentration giving 150% activation of SIRT1; for Emax: percent maximum fold activation, read-out: TAMRA % Fold Act
Method in brief: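 Recombinant N-terminal His-tagged human SIRT1 (10 nM, E. coli) incubated 25 min at 25 °C with 0.5 μM 5TMR-labelled p53-derived acetyl-peptide and 120 μM βNAD+ in Tris-acetate pH 8 buffer with DTT and 0.05% BSA, compound at varying concentrations. Stopped with formic acid; deacetylated peptide or OAADPR measured by mass spectrometry relative to DMSO controls.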

| SMILES | TAMRA EC1.5 (μM) (TAMRA assay) | Emax (TAMRA assay) | TAMRA EC1.5 (TAMRA peptide substrate) | Emax (TAMRA peptide substrate) |
| --- | --- | --- | --- | --- |
| Cc1cc(C)nc(NC(=O)c2cnc3ccc(-c4ccccc4OCC(O)CO)nn23)c1 (stereo not drawn) [Compound 371] | A (EC1.5<1 μM) | ≥ 350% |  |  |
| Cc1nc2ccc(-c3ccccc3C(F)(F)F)nn2c1NC(=O)c1cnccn1 [Compound 376] | B (EC1.5 1-25 μM) | < 350% |  |  |
| Cc1nc2ccc(-c3ccccc3C(F)(F)F)nn2c1NC(=O)c1cccc(OCC(O)CO)n1 (stereo not drawn) [Compound 384] | B (EC1.5 1-25 μM) | < 350% |  |  |
| Cc1scnc1C(=O)Nc1cnc2c(C)c(C)c(-c3ccccc3Cl)nn12 [Compound 385] | A (EC1.5<1 μM) | ≥ 350% |  |  |
| Cc1ccc(C(=O)Nc2cnc3ccc(-c4ccccc4C(F)(F)F)nn23)c(C)n1 [Compound 394] | B (EC1.5 1-25 μM) | < 350% |  |  |
| Cc1ccc(NC(=O)c2cnc3ccc(-c4ccccc4OC(F)(F)F)nn23)nn1 [Compound 396] | A (EC1.5<1 μM) | ≥ 350% |  |  |
| Cc1cnc(NC(=O)c2cnc3ccc(-c4ccccc4OC(F)(F)F)nn23)s1 [Compound 397] |  |  | A (EC1.5<1 μM) | < 350% |
| Cc1cc(C)nc(NC(=O)c2cnc3ccc(-c4ccccc4OC(F)(F)F)nn23)n1 [Compound 399] |  |  | B (EC1.5 1-25 μM) | ≥ 350% |
| CC1(COc2cccc(NC(=O)c3cnc4ccc(-c5ccccc5OC(F)(F)F)nn34)n2)COC1 [Compound 400] |  |  | A (EC1.5<1 μM) | ≥ 350% |
| Cc1scnc1C(=O)Nc1cnc2c(C)c(C)c(-c3ccccc3C(F)(F)F)nn12 [Compound 403] |  |  | A (EC1.5<1 μM) | ≥ 350% |
| Cc1nc(C(=O)Nc2c(C)nc3ccc(-c4ccccc4C(F)(F)F)nn23)cs1 [Compound 405] |  |  | B (EC1.5 1-25 μM) | ≥ 350% |
| Cc1cc(-c2ccccc2C(F)(F)F)nn2c(NC(=O)c3cscn3)cnc12 [Compound 411] |  |  | A (EC1.5<1 μM) | ≥ 350% |
| Cc1cc(-c2ccccc2C(F)(F)F)nn2c(NC(=O)c3nccs3)cnc12 [Compound 414] |  |  | A (EC1.5<1 μM) | ≥ 350% |
| Cc1cccc(NC(=O)c2cnc3ccc(-c4cccc(OCC(O)CO)c4)nn23)n1 (stereo not drawn) [Compound 416] |  |  | A (EC1.5<1 μM) | ≥ 350% |
| Cc1cc(C)nc(C(=O)Nc2cnc3c(C)c(C)c(-c4ccccc4C(F)(F)F)nn23)n1 [Compound 420] |  |  | A (EC1.5<1 μM) | ≥ 350% |
| Cc1cc(C)nc(NC(=O)c2c(C)nc3c(C)cc(-c4ccccc4C(F)(F)F)nn23)c1 [Compound 429] |  |  | A (EC1.5<1 μM) | ≥ 350% |
| Cc1cc(NC(=O)c2c(C)nc3c(C)cc(-c4ccccc4C(F)(F)F)nn23)cc(C)n1 [Compound 432] |  |  | A (EC1.5<1 μM) | ≥ 350% |
| O=C(Nc1cnc2ccc(-c3ccccc3C(F)(F)F)nn12)c1ncc(F)cc1F [Compound 440] |  |  | A (EC1.5<1 μM) | ≥ 350% |
| Cc1cc2ncc(NC(=O)c3ccccn3)n2nc1-c1ccccc1C(F)(F)F [Compound 441, N-(7-methyl-6-(2-(trifluoromethyl)phenyl)imidazo[1,2-b]pyridazin-3-yl)picolinamide] |  |  | A (EC1.5<1 μM) | ≥ 350% |
| Cc1cc2ncc(NC(=O)c3ncccn3)n2nc1-c1ccccc1C(F)(F)F [Compound 444] |  |  | A (EC1.5<1 μM) | ≥ 350% |
| Cc1cc2ncc(NC(=O)c3nccs3)n2nc1-c1ccccc1C(F)(F)F [Compound 446] |  |  | A (EC1.5<1 μM) | ≥ 350% |
| O=C(Nc1ccccn1)c1ncn2ccc(-c3ccccc3C(F)(F)F)nc12 [Compound 450] |  |  | B (EC1.5 1-25 μM) | ≥ 350% |
| O=C(Nc1ncn2ccc(-c3ccccc3C(F)(F)F)nc12)c1cccc(N2CCOCC2)n1 [Compound 456] |  |  | A (EC1.5<1 μM) | ≥ 350% |
| Cc1cccc(NC(=O)c2c(C)nc3c(C)cc(-c4ccccc4C(F)(F)F)nn23)n1 [Compound 458] |  |  | A (EC1.5<1 μM) | ≥ 350% |
| Cc1cc(NC(=O)c2c(C)nc3c(C)cc(-c4ccccc4C(F)(F)F)nn23)ccn1 [Compound 459] |  |  | A (EC1.5<1 μM) | ≥ 350% |

Results, then the compound that gave them:

| TAMRA EC1.5 (μM) (TAMRA assay) | Emax (TAMRA assay) | TAMRA EC1.5 (TAMRA peptide substrate) | Emax (TAMRA peptide substrate) | SMILES |
| --- | --- | --- | --- | --- |
| B (EC1.5 1-25 μM) | < 350% |  |  | O=C(Nc1ccccn1)c1cnc2ccc(-c3cccc(OCC(O)CO)c3)nn12 (stereo not drawn) [Compound 373] |
| B (EC1.5 1-25 μM) | < 350% |  |  | Cc1cc(NC(=O)c2cnc3ccc(-c4cccc(OCC(O)CO)c4)nn23)ccn1 (stereo not drawn) [Compound 374] |
| B (EC1.5 1-25 μM) | ≥ 350% |  |  | Cc1nc2ccc(-c3ccccc3C(F)(F)F)nn2c1NC(=O)c1ncccn1 [Compound 378] |
| B (EC1.5 1-25 μM) | ≥ 350% |  |  | Cc1nc(C(=O)Nc2c(C)nc3ccc(-c4ccccc4C(F)(F)F)nn23)c(C)s1 [Compound 379] |
| A (EC1.5<1 μM) | ≥ 350% |  |  | Cc1nc2ccc(-c3ccccc3C(F)(F)F)nn2c1NC(=O)c1cccc(N2CCOCC2)n1 [Compound 382] |
| A (EC1.5<1 μM) | ≥ 350% |  |  | Cc1cc(C)nc(C(=O)Nc2cnc3c(C)c(C)c(-c4ccccc4Cl)nn23)n1 [Compound 388] |
| A (EC1.5<1 μM) | ≥ 350% |  |  | O=C(Nc1cccc(CN2CC[C@@H](F)C2)n1)c1cnc2ccc(-c3ccccc3C(F)(F)F)nn12 [Compound 390] |
| A (EC1.5<1 μM) | ≥ 350% |  |  | O=C(Nc1cccc(CN2CCC(F)(F)CC2)n1)c1cnc2ccc(-c3ccccc3C(F)(F)F)nn12 [Compound 391] |
|  |  | A (EC1.5<1 μM) | ≥ 350% | Cc1c(-c2ccccc2Cl)nn2c(NC(=O)c3cccc(OCC(O)CO)n3)cnc2c1C (stereo not drawn) [Compound 402] |
|  |  | B (EC1.5 1-25 μM) | < 350% | Cc1nc2ccc(-c3ccccc3C(F)(F)F)nn2c1NC(=O)c1cscn1 [Compound 404] |
|  |  | A (EC1.5<1 μM) | ≥ 350% | Cc1cc(-c2ccccc2C(F)(F)F)nn2c(NC(=O)c3cnccn3)cnc12 [Compound 408] |
|  |  | A (EC1.5<1 μM) | ≥ 350% | Cc1cc(-c2ccccc2C(F)(F)F)nn2c(NC(=O)c3ccncn3)cnc12 [Compound 409] |
|  |  | A (EC1.5<1 μM) | ≥ 350% | Cc1cc(-c2ccccc2C(F)(F)F)nn2c(NC(=O)c3ncccn3)cnc12 [Compound 410] |
|  |  | A (EC1.5<1 μM) | ≥ 350% | Cc1cc(C)nc(NC(=O)c2cnc3ccc(-c4cccc(OCC(O)CO)c4)nn23)c1 (stereo not drawn) [Compound 417] |
|  |  | A (EC1.5<1 μM) | ≥ 350% | Cc1c(-c2ccccc2C(F)(F)F)nn2c(NC(=O)c3cccc(OCC(O)CO)n3)cnc2c1C (stereo not drawn) [Compound 422, 6-(2,3-dihydroxypropoxy)-N-(7,8-dimethyl-6-(2-(trifluoromethyl)phenyl)imidazo[1,2-b]pyridazin-3-yl)picolinamide] |
|  |  | A (EC1.5<1 μM) | ≥ 350% | O=C(Nc1cccc(OC(CO)CO)n1)c1cnc2ccc(-c3ccccc3C(F)(F)F)nn12 [Compound 423, N-(6-((1,3-dihydroxypropan-2-yl)oxy)pyridin-2-yl)-6-(2-(trifluoromethyl)phenyl)imidazo[1,2-b]pyridazine-3-carboxamide] |
|  |  | A (EC1.5<1 μM) | ≥ 350% | Cc1cc(-c2ccccc2C(F)(F)F)nn2c(NC(=O)c3cccc(N4CCC4)n3)cnc12 [Compound 426] |
|  |  | A (EC1.5<1 μM) | ≥ 350% | Cc1cc2ncc(NC(=O)c3cscn3)n2nc1-c1ccccc1C(F)(F)F [Compound 434] |
|  |  | A (EC1.5<1 μM) | ≥ 350% | Cc1cc2ncc(NC(=O)c3cccc(N4CCOCC4)n3)n2nc1-c1ccccc1C(F)(F)F [Compound 435] |
|  |  | A (EC1.5<1 μM) | ≥ 350% | O=C(Nc1cnc2ccc(-c3ccccc3C(F)(F)F)nn12)c1cccc(-n2cnnc2)n1 [Compound 438] |
|  |  | A (EC1.5<1 μM) | ≥ 350% | Cc1cnc(C(=O)Nc2cnc3cc(C)c(-c4ccccc4C(F)(F)F)nn23)s1 [Compound 447] |
|  |  | A (EC1.5<1 μM) | ≥ 350% | O=C(Nc1ccncn1)c1ncn2ccc(-c3ccccc3C(F)(F)F)nc12 [Compound 452] |
|  |  | B (EC1.5 1-25 μM) | ≥ 350% | O=C(Nc1ncccn1)c1ncn2ccc(-c3ccccc3C(F)(F)F)nc12 [Compound 453] |
